Data published in patent publication US9546144B2, “Bifunctional compounds” (University of Pittsburgh—of the Commonwealth System of …, priority 2011, dated 2017).
Converted amounts (≈) assume the structure as drawn.

Assay: physchem
Settings: aqueous buffer, kinetic from dmso stock
Protocol: General procedure for kinetic solubility measurements. A polypropylene tube was charged with PBS solution (490 μL). To the buffer was added a 10 mM stock solution of compound (10 μL). The tube was vortexed and equilibrated on an end-over-end rotator for 15 min at rt. Aliquots (400 μL) were filtered through 0.45 μm syringe filters and diluted to 5.0 mL with absolute MeOH. Concentrations were determined by UV/VIS analysis.
The test compounds were prepared at concentrations of 10 mM and added to the buffer at room temperature such that cosolvent concentration was fixed at 2%.

| Structure (SMILES) | solubility kinetic at 15 min [µM] |
| --- | --- |
| COC1=CC(=O)C[C@@H](C)[C@]12Oc1c(Cl)c(OC)cc(OC)c1C2=O [compound 11, griseofulvin] | 180 ± 13 (≈ 63.5 µg/mL) |
| COC(=O)Nc1nc2ccccc2[nH]1 [compound 10, carbendazim] | 140 ± 13 (≈ 26.8 µg/mL) |
